Data taken from ChEMBL document CHEMBL1128749, “1-Aminoindan-1,5-dicarboxylic acid: a novel antagonist at phospholipase C-linked metabotropic glutamate receptors” (J Med Chem, 1995).

Assays:
[1] = biological target: T1, Metabotropic glutamate receptor 2 (Homo sapiens, UniProt Q14416); assay: Ability to inhibit mGluR2-alpha induced cAMP formation was determined at BHK cells at 100 Micro M Concentration; Not effective at the highest concentration tested (100 uM); type: functional, cell-based, Mesocricetus auratus
T1 sequence (Q14416 whole entry): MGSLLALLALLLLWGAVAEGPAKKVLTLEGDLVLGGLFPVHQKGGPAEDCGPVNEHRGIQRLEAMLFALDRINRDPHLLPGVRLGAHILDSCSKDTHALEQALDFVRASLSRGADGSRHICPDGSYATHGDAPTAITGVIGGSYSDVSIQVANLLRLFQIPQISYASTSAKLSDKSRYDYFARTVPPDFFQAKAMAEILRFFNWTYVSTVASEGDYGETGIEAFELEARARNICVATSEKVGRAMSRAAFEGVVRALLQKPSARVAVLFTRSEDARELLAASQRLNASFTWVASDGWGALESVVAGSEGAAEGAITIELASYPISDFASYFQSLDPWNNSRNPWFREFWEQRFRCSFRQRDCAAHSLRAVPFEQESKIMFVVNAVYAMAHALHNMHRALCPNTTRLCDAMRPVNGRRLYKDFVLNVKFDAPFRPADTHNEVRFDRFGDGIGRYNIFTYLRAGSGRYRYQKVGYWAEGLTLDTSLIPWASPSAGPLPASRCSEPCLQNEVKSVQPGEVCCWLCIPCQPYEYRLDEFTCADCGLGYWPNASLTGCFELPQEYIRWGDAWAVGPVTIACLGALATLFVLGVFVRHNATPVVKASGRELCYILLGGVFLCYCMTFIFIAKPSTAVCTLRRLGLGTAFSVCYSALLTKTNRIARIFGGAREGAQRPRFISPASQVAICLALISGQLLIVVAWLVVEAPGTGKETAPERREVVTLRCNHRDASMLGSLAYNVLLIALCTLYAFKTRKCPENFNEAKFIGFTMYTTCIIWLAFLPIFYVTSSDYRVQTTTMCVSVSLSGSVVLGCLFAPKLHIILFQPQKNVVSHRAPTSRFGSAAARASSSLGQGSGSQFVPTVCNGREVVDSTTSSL

[2] = biological target: T2, Metabotropic glutamate receptor 4 (Homo sapiens, UniProt Q14833); assay: Ability to inhibit mGluR4-alpha induced cAMP formation was determined at BHK cells at 100 Micro M Concentration; Not effective at the highest concentration tested (100 uM); type: functional, cell-based, Mesocricetus auratus
T2 sequence (Q14833 whole entry): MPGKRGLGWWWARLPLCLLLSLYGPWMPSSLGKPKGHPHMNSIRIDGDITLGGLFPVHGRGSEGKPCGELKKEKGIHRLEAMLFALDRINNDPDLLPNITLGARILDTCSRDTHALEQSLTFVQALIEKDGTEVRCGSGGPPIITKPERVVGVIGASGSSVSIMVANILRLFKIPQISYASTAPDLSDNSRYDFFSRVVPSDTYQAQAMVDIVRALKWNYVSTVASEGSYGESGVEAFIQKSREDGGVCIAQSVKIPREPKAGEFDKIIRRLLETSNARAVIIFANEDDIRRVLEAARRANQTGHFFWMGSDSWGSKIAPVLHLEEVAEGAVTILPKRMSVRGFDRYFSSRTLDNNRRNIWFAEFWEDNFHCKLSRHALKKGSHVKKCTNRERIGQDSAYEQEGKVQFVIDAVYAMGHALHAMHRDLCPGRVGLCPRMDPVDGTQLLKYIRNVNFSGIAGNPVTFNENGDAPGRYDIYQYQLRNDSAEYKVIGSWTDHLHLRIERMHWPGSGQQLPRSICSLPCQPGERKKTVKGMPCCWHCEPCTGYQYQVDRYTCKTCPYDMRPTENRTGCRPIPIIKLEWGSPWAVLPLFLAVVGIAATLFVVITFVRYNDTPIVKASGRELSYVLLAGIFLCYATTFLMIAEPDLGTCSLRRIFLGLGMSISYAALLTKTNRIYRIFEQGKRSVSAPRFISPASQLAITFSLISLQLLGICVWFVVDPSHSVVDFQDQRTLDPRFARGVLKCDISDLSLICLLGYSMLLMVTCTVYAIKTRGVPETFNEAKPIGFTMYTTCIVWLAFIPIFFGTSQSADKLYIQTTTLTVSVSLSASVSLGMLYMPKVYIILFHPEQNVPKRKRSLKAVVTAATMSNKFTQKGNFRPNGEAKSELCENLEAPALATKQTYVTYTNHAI

[3] = biological target: T3, Metabotropic glutamate receptor 1 (Homo sapiens, UniProt Q13255); assay: Ability to inhibit mGluR1-alpha-mediated PI (phospho inositol) hydrolysis was determined at BHK cells at 100 Micro M Concentration; Not effective at the highest concentration tested (100 uM); type: functional, cell-based, Mesocricetus auratus
T3 sequence (Q13255 whole entry): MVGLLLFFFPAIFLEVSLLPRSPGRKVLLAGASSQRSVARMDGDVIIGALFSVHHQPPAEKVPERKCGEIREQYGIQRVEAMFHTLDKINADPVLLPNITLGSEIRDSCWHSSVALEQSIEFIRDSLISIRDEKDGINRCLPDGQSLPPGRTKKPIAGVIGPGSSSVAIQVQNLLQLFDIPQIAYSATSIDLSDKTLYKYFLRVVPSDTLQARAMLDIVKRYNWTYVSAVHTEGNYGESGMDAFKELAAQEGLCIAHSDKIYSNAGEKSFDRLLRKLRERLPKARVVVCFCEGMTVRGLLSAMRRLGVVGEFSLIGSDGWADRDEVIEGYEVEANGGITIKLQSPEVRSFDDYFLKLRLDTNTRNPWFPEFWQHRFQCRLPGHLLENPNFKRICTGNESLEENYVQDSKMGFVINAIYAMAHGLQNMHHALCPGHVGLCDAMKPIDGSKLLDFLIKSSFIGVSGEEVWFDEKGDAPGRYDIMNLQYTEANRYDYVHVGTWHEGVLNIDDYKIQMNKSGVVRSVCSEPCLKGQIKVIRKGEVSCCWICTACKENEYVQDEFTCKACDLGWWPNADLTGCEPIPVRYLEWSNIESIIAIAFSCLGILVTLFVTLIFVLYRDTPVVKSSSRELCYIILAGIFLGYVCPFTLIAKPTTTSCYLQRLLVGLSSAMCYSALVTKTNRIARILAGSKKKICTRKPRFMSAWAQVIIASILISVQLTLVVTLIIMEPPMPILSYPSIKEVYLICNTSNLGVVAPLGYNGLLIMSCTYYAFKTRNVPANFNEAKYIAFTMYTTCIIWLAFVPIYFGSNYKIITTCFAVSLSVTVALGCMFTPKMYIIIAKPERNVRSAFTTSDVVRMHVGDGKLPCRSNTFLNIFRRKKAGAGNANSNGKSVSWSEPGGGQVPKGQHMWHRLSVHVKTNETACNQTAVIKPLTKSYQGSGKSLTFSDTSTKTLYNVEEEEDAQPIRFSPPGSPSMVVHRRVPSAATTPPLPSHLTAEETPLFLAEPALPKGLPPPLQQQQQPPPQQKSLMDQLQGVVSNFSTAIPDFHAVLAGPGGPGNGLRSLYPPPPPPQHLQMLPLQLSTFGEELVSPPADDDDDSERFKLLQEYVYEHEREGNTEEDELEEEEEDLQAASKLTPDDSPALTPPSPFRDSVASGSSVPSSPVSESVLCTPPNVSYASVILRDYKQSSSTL

[4] = biological target: T1, Metabotropic glutamate receptor 2; assay: Ability to inhibit mGluR2-alpha induced cAMP formation was determined at BHK cells at 100 Micro M Concentration; type: functional, cell-based, Mesocricetus auratus
[5] = biological target: T2, Metabotropic glutamate receptor 4; assay: Ability to inhibit mGluR4-alpha induced cAMP formation was determined at BHK cells at 100 Micro M Concentration; type: functional, cell-based, Mesocricetus auratus
[6] = biological target: T3, Metabotropic glutamate receptor 1; assay: Ability to inhibit mGluR1-alpha-mediated PI (phospho inositol) hydrolysis was determined at BHK cells at 100 Micro M Concentration; type: functional, cell-based, Mesocricetus auratus
[7] = biological target: T1, Metabotropic glutamate receptor 2; assay: Ability to inhibit mGluR2-alpha induced cAMP formation was determined at BHK cells at 100 Micro M Concentration; Not effective at the highest concentration tested (100 µM)

## NC1(C(=O)O)CCc2c(C(=O)O)cccc21 (stereo not drawn)
[1]
  IC50: No effect
[2]
  IC50: No effect
[3]
  IC50: No effect

## CC(N)(C(=O)O)c1ccc(C(=O)O)cc1 (stereo not drawn)
[4]
  IC50: 340 µM
[5]
  IC50: > 1000 µM
[6]
  IC50: 155 µM

## NC(C(=O)O)c1ccc(C(=O)O)c(O)c1 (stereo not drawn)
[4]
  IC50: 48 µM
[5]
  IC50: > 1000 µM
[6]
  IC50: 40 µM

## NC(C(=O)O)c1ccc(C(=O)O)cc1 (stereo not drawn)
[4]
  IC50: 577 µM
[5]
  IC50: > 1000 µM
[6]
  IC50: 65 µM

## NC1(C(=O)O)CCc2ccc(C(=O)O)cc21 (stereo not drawn)
[2]
  IC50: No effect
[3]
  IC50: No effect
[7]
  IC50: No effect

## NC1(C(=O)O)CCc2cc(C(=O)O)ccc21 (stereo not drawn)
[1]
  IC50: No effect
[2]
  IC50: No effect
[6]
  IC50: 7 µM
